Laboratory results as given in US11752091B2, “Composition for strengthening skin barrier, moisturizing skin or anti-aging” (COSMAX, INC., priority 2020, dated 2023).

Experiments:
Settings in all cases: 37° C., 48 hours (examined up to 72 hours); well color change to purple or red
S. infantis (CX-4) = experiment: Substance utilization by isolated strains (BioLOG GP2, API 50); format: cell-based, Streptococcus infantis
Procedure: (§1) To analyze substance utilization by the isolated strains (Streptococcus pneumoniae, Streptococcus infantis, and Streptococcus mitis), tests were conducted in the following manner. BioLOG GP2 and API 50 were used in determining the substance utilization, and testing was performed using testing methods provided by Omnilog and Biomeriuse. The culturing temperature and media suitable to corresponding strains were selected, and 5 among cluster colonies incubated for 48 hours were taken and suspended in reagents before use. The inoculation amount was 150 μl. As the suspension, components of kits provided by various manufacturers were used. When the strains are yet to be inoculated, the suspension is in a transparent liquid phase. Inoculated plates and strips were incubated at 37° C. for 48 hours, and then the incubation of up to 72 hours was examined. Wells were in a transparent liquid phase at the time of inoculating, but the colors of the wells changed to purple or red, and the color-changed wells were determined to be positive.

S. pneumoniae (CX-2) = format: cell-based, Streptococcus pneumoniae
Procedure: as §1

S. mitis (CX-8) = experiment: Substance utilization by isolated strains (BioLOG GP2, API 50); format: cell-based, Streptococcus mitis
Procedure: as §1

[Cl-].[Na+] [1% NaCl, NaCl]
substance utilization, S. infantis (CX-4) (S. infantis (CX-4)): +
substance utilization, S. pneumoniae (CX-2) (S. pneumoniae (CX-2)): +
substance utilization, S. mitis (CX-8) (S. mitis (CX-8)): +

CC(O)C(=O)[O-].[Na+] (stereo not shown) [1% Sodium Lactate, Sodium Lactate]
substance utilization, S. infantis (CX-4) (S. infantis (CX-4)): +
substance utilization, S. pneumoniae (CX-2) (S. pneumoniae (CX-2)): +
substance utilization, S. mitis (CX-8) (S. mitis (CX-8)): +

OC[C@H]1O[C@@H](O[C@H]2[C@H](O)[C@@H](O)[C@H](O)O[C@@H]2CO)[C@H](O)[C@@H](O)[C@@H]1O [D-Cellobiose]
substance utilization, S. infantis (CX-4) (S. infantis (CX-4)): +
substance utilization, S. pneumoniae (CX-2) (S. pneumoniae (CX-2)): +
substance utilization, S. mitis (CX-8) (S. mitis (CX-8)): +

O=P(O)(O)OC[C@H]1OC(O)(CO)[C@@H](O)[C@@H]1O (stereo partly drawn) [D-Fructose-6-Po4]
substance utilization, S. mitis (CX-8) (S. mitis (CX-8)): +

OC[C@H]1O[C@H](OCC2O[C@@H](O)[C@H](O)[C@@H](O)[C@@H]2O)[C@H](O)[C@@H](O)[C@H]1O (stereo partly drawn) [D-Melibiose]
substance utilization, S. pneumoniae (CX-2) (S. pneumoniae (CX-2)): +

OC[C@H]1O[C@H](OC[C@H]2O[C@H](O[C@]3(CO)O[C@H](CO)[C@@H](O)[C@@H]3O)[C@H](O)[C@@H](O)[C@@H]2O)[C@H](O)[C@@H](O)[C@H]1O [D-Raffinose]
substance utilization, S. pneumoniae (CX-2) (S. pneumoniae (CX-2)): +

OC[C@H]1O[C@H](O[C@H]2[C@H](O)[C@@H](O)[C@H](O)O[C@@H]2CO)[C@H](O)[C@@H](O)[C@@H]1O [D-maltose]
substance utilization, S. infantis (CX-4) (S. infantis (CX-4)): +
substance utilization, S. pneumoniae (CX-2) (S. pneumoniae (CX-2)): +
substance utilization, S. mitis (CX-8) (S. mitis (CX-8)): +

O=C1O[C@H]([C@@H](O)CO)[C@@H](O)[C@@H]1O [L-Galactonic Acid Lactone]
substance utilization, S. mitis (CX-8) (S. mitis (CX-8)): +

[Cl-].[Li+] [Lithium Chloride]
substance utilization, S. mitis (CX-8) (S. mitis (CX-8)): +

O=[Te]([O-])[O-].[K+].[K+] [Potassium Tellurite]
substance utilization, S. infantis (CX-4) (S. infantis (CX-4)): +
substance utilization, S. pneumoniae (CX-2) (S. pneumoniae (CX-2)): +
substance utilization, S. mitis (CX-8) (S. mitis (CX-8)): +

CO[C@H]1/C=C/O[C@@]2(C)Oc3c(C)c([O-])c4c(O)c(cc(O)c4c3C2=O)NC(=O)/C(C)=C\C=C\[C@H](C)[C@H](O)[C@@H](C)[C@@H](O)[C@@H](C)[C@H](OC(C)=O)[C@@H]1C.[Na+] [Rifamycin SV]
substance utilization, S. infantis (CX-4) (S. infantis (CX-4)): +
substance utilization, S. mitis (CX-8) (S. mitis (CX-8)): +

OC[C@H]1O[C@H](OC[C@H]2O[C@H](OC[C@H]3O[C@H](O[C@]4(CO)O[C@H](CO)[C@@H](O)[C@@H]4O)[C@H](O)[C@@H](O)[C@@H]3O)[C@H](O)[C@@H](O)[C@H]2O)[C@H](O)[C@@H](O)[C@H]1O [Stachyose]
substance utilization, S. infantis (CX-4) (S. infantis (CX-4)): +
substance utilization, S. pneumoniae (CX-2) (S. pneumoniae (CX-2)): +
substance utilization, S. mitis (CX-8) (S. mitis (CX-8)): +

COc1cc(-c2ccc(-n3nc(-c4ccccc4)n[n+]3-c3ccccc3)c(OC)c2)ccc1-n1nc(-c2ccccc2)n[n+]1-c1ccccc1.[Cl-].[Cl-] [Tetrazolium Blue]
substance utilization, S. infantis (CX-4) (S. infantis (CX-4)): +
substance utilization, S. mitis (CX-8) (S. mitis (CX-8)): +

D-Salicin
substance utilization, S. mitis (CX-8) (S. mitis (CX-8)): +

D-Turanose
substance utilization, S. pneumoniae (CX-2) (S. pneumoniae (CX-2)): +

Dextrin
substance utilization, S. infantis (CX-4) (S. infantis (CX-4)): +
substance utilization, S. pneumoniae (CX-2) (S. pneumoniae (CX-2)): +
substance utilization, S. mitis (CX-8) (S. mitis (CX-8)): +

Pectin
substance utilization, S. infantis (CX-4) (S. infantis (CX-4)): +
substance utilization, S. pneumoniae (CX-2) (S. pneumoniae (CX-2)): +
substance utilization, S. mitis (CX-8) (S. mitis (CX-8)): +

Tween 40
substance utilization, S. infantis (CX-4) (S. infantis (CX-4)): +
substance utilization, S. pneumoniae (CX-2) (S. pneumoniae (CX-2)): +
